Experimental data from patent US4959362A, “Pharmaceutical compositions containing certain ascorbic acid derivatives useful in the prophylaxis and treatment of disorders of the circulatory system” (Takeda Chemical Industries, Inc., priority 1983, dated 1990).

Tests used:
[1] = test system: lipid peroxide formation in rat brain tissue homogenate; assay: Inhibition of lipid peroxide formation in rat brain tissue homogenate (TBA method); format: biochemical, rat (male SD); settings: 10^-5 M; for Inhibitory Effect (%) on lipid peroxide formation: n = 3, mean ± standard error, 37° C., 1 hour
Experimental: Activity to inhibit lipid peroxide formation in rat brain tissue homogenate:
Male SD rats (12-weeks old) were subjected to exsanguination under anesthesia with pentobarbital, then the brain was excised. The brain tissue was homogenized in a phosphate buffer solution (pH 7.4) to prepare a 5% homogenate. After incubation of the homogenate at 37° C. for 1 hour, the amount of lipid peroxides formed therein was determined by thiobarbituric acid (TBA) method in accordance with the report of Ohkawa et al. on Analytical Biochemistry 95 351, 1979.
The test drug was added to the 5% homogenate before incubation so as to make the final concentration be 10^-5 M. The activity to inhibit the formation of lipid peroxides was compared with that of the reference group to which was added the solvent (DMSO), and shown by % inhibition.

[2] = test system: ventricular arrhythmias after coronary artery occlusion-reperfusion in rat hearts; assay: Inhibition of ventricular arrhythmias during coronary artery occlusion-reperfusion in rat hearts; format: in vivo, rat (male SD); settings: oral; for Extrasystole / Mortality (animals) / Mortality (percentage) / Ventricular fibrillation Incidence (animals) / Ventricular fibrillation Incidence (percentage) / Ventricular tachycardia Incidence (animals) / Ventricular tachycardia Incidence (percentage) / Ventricular fibrillation Duration / Ventricular tachycardia Duration: 50 mg/kg total; for Ventricular fibrillation Duration / Ventricular tachycardia Duration: average ±SEM; for occurrence of ventricular arrhythmias: 20 and 50 mg/kg of compound (1-12), 50 mg/kg of vitamin C or E
Experimental: Action to inhibit ventricular arrhythmias occurred during coronary artery occlusion-reperfusion in rat hearts
Male SD rats (9~13 - weeks old, 250~370 g) were used. The animals were subjected to thoractonomy under artificial respiration while anesthesia was maintained by administering pentobarbital. […] By recording standard limb lead II electrocardiograms, occurrence of ventricular arrhythmias was examined.
The animals were administered, under non-anesthesia, with test drugs as a gum arabic suspension at the dosage of 30 mg/kg at the time of about 90 minutes and of 20 mg/kg at the time of about 45 minutes (total: 50 mg/kg), or at the dosage of 10 mg/kg each (total: 20 mg/kg) at the time of about 90 minutes and about 45 minutes prior to closure of the coronary artery. The results are shown in Table 4 in terms of the total amount of the dosage.
Incidences of ventricular fibrillation and ventricular tachycardia are shown by the percentage of the number of animals presenting the symptoms relative to the number of animals subjected to the test, and the duration of the symptoms was shown in average ±SEM by seconds. Extrasystole is shown by the number of systole/min, and the mortality is shown by the percentage of the number of animals killed relative to the number of animals subjected to the test.

[3] = Oxidation inhibitory activity: reduction of a stable free radical (DPPH); format: biochemical; settings: FIG. 1
Experimental: Oxidation inhibitory activity determined with the use of a stable radical: In accordance with the method of M. S. Brois [Nature, 181, 1199, 1958], the activity to reduce a stable free radical, α,α-diphenyl-β-picryl hydrazyl (DPPH), was determined, which was used as an index of the oxidation inhibitory activity. […] Then, 20 minutes later, the absorbance at a wavelength of 517 nm was measured with the use of a spectrophotometer.

[4] = test system: renal disorders due to Fe^3+ -nitrilotriacetate (NTA); assay: Effects on renal disorders in rats due to Fe^3+ nitrilotriacetate (NTA); format: in vivo, rat (male SLC-Wistar); settings: 30 mg/kg orally; for Body Weight / Kidney Weight / Occult Blood Test (positive animals/animals) / Protein in urine / Volume of urine: n = 6, last day of the experiment
Experimental: Effects to alleviate renal disorders in rats due to Fe^3+ nitrilotriacetate:
Male SLC-Wistar rats (4-weeks old, 64~85 g) were used. The animals were housed individually in metabolism cages and allowed free access to feed and water. Body weight, volume of urine and protein in urine (BIO-RAD method) were determined every day, and occult blood reaction was also examined (Labstick method). On the last day of the experiment, the kidney was excised and weighed.
The animals were orally administered once daily with test drugs or vehicles thereof (suspension in gum arabic), and, 40~60 minutes later, were injected intraperitoneally with nitrilotriacetate (NTA) or Fe^3+ -NTA. Fe^3+ -NTA was used in a form of mixture (1:4, molar ratio), and the dosages were 5 mg/kg in terms of Fe^3+ for 3 days and successively 10 mg/kg for 5 days.
Test drugs were compound (1-12), vitamin C and vitamin E, and the dosages were all 30 mg/kg.

For CCCCCCCCOC1=C(O)[C@@H]([C@@H](O)CO)OC1=O [Compound (1-2)], the “Inhibitory Effect (%) on lipid peroxide formation” value (“Inhibitory Effect (%)” below) [1] was -6.6 ± 3.0%.

In the case of CCCCCCCCCCOC1=C(O)[C@@H]([C@@H](O)CO)OC1=O [Compound (1-4)], the “Inhibitory Effect (%)” value [1] is reported as 40.0 ± 1.1%.

With CCCCCCCCCCCCOC1=C(O)[C@@H]([C@@H](O)CO)OC1=O [Compound (1-6), 2-O-Dodecyl-L-ascorbic acid] the “Inhibitory Effect (%)” value [1] was 55.7 ± 26.5%.

With CCCCCCCCCCCCCCOC1=C(O)[C@@H]([C@@H](O)CO)OC1=O [Compound (1-8)] the “Inhibitory Effect (%)” value [1] was 93.1 ± 5.3%.

For CCCCCCCCCCCCCCCOC1=C(O)[C@@H]([C@@H](O)CO)OC1=O [Compound (1-9), 2-O-pentadecyl-L-ascorbic acid], the “Inhibitory Effect (%)” value [1] was 100.0 ± 0%.

With CCCCCCCCCCCCCCCCOC1=C(O)[C@@H]([C@@H](O)CO)OC1=O [Compound (1-10), 2-O-hexadecyl-L-ascorbic acid] the “Inhibitory Effect (%)” value [1] was 78.5 ± 11.7%.

With CCCCCCCCCCCCCCCCCCCCOC1=C(O)[C@@H]([C@@H](O)CO)OC1=O [Compound (1-13)] the “Inhibitory Effect (%)” value [1] was 95.4 ± 4.6%.

In the case of CCCCCCCCCCCCCCCCCCCCCCOC1=C(O)[C@@H]([C@@H](O)CO)OC1=O [Compound (1-14)], the “Inhibitory Effect (%)” value [1] is reported as 38.1 ± 16.6%.

In the case of O=C1O[C@H]([C@@H](O)CO)C(O)=C1O [Vitamin C, ascorbic acid], the Extrasystole [2] is reported as 5.1 ± 1.0 systole/min, the “Mortality (animals)” value [2] is reported as 0/6 and the “Mortality (percentage)” value [2] is reported as 0 percentage. The “Ventricular fibrillation Incidence (animals)” value [2] was 6/6, the “Ventricular fibrillation Incidence (percentage)” value [2] was 100 percentage and the “Ventricular tachycardia Incidence (animals)” value [2] was 6/6. For the same compound, the “Ventricular tachycardia Incidence (percentage)” value [2] was 100 percentage, the “Ventricular fibrillation Duration” value [2] was 9.7 ± 2.5 s and the “Ventricular tachycardia Duration” value [2] was 19.0 ± 3.0 s. For the same compound, the “occurrence of ventricular arrhythmias” value [2] was “no significant effects”, the “DPPH reducing activity compared with the test drug” value [3] was “activity equal to that of the test drug” and the “Activity on lipid peroxide formation” value [1] was “promoted the formation of lipid peroxides remarkably”. For the same compound, the “Inhibitory Effect (%)” value [1] was -71.6 ± 36.8%, the “Effect on renal disorders” value [4] was “did not show significant effect for alleviating renal disorders” and the “Body Weight” value [4] was 89.2 ± 4.1 g. The “Kidney Weight” value [4] was 64.5 ± 1.7 mg, the “Occult Blood Test (positive animals/animals)” value [4] was 5/6 and the Protein in urine [4] was 10.7 ± 2.4 mg/day. For the same compound, the Volume of urine [4] was 10.3 ± 1.7 mL/day.

For CCCCCCCCCCCCCCCCCCOC1=C(O)C(=O)O[C@@H]1[C@@H](O)CO [reference compound], the “Inhibitory Effect (%)” value [1] was 45.4 ± 8.7%.

With Vitamin E [reference compound] the Extrasystole [2] was 7.0 ± 4.1 systole/min, the “Mortality (animals)” value [2] was 1/10 and the “Mortality (percentage)” value [2] was 10 percentage. For the same compound, the “Ventricular fibrillation Incidence (animals)” value [2] was 6/10, the “Ventricular fibrillation Incidence (percentage)” value [2] was 60 percentage and the “Ventricular tachycardia Incidence (animals)” value [2] was 7/10. The “Ventricular tachycardia Incidence (percentage)” value [2] was 70 percentage, the “Ventricular fibrillation Duration” value [2] was 43.4 ± 36.0 s and the “Ventricular tachycardia Duration” value [2] was 22.3 ± 9.7 s. For the same compound, the “occurrence of ventricular arrhythmias” value [2] was “no significant effects”, the “DPPH reducing activity compared with the test drug” value [3] was “activity equal to that of the test drug” and the “Inhibitory Effect (%)” value [1] was 44.9 ± 11.7%. For the same compound, the “Effect on renal disorders” value [4] was “substantially the same effects”, the “occult blood detection” value [4] was “in more than half of the test animals, occult blood test was positive” and the “Body Weight” value [4] was 99.3 ± 2.3 g. The “Kidney Weight” value [4] was 54.3 ± 2.7 mg, the “Occult Blood Test (positive animals/animals)” value [4] was 4/6 and the Protein in urine [4] was 6.3 ± 1.4 mg/day. It also gave a Volume of urine [4] of 9.0 ± 1.0 mL/day.
